Results on 14 compounds are retold here after patent publication US10604526B2, “Chemokine receptor modulators and uses thereof” (RAPT THERAPEUTICS, INC., priority 2016, dated 2020).

For the test, the target named is T1, hCCR4 (Homo sapiens, UniProt P51679).
T1 sequence (P51679 1-360): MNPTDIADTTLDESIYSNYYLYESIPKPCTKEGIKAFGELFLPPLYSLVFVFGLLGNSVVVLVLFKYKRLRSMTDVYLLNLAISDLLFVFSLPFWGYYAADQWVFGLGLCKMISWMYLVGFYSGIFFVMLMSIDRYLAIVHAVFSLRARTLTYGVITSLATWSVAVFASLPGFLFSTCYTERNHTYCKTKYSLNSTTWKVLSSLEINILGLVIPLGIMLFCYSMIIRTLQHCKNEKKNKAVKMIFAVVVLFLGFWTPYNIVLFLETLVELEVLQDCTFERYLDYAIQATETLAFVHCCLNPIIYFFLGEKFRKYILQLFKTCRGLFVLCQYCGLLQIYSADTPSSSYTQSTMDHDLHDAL
Kind of test: Calcium flux assay. Format: cell-based. To be noted: Chem5-hCCR4 cells, CCL22 at EC80 of 1.5 nM, FLIPR Calcium 6 dye; read-out: Potency (IC50). As for the experimental part:
Calcium Flux Assay. Compounds were evaluated in a calcium flux assay substantially performed as follows. Chem5-hCCR4 cells (EMD Millipore, Hayward, Calif.; HTS009C) were cultured under standard conditions and frozen in aliquots of 10×10^6 cells/mL. The day prior to compound testing, a vial was rapidly thawed and pipetted into 20 mL media (DMEM+10% FBS+1% Pen-Strep+1% L-glutamine). Cells were harvested by centrifugation and re-suspended in fresh culture medium. 25 μL of cell suspension was seeded into 384-well plates (Corning, Tewksbury, Mass.; CellBind with black wall/clear bottom). The plates were centrifuged at 300 g for 10 seconds and incubated overnight at 37° C. and 5% CO2. The day of compound testing, media was removed from the plates and 25 μL serum free media was added to each well. Plates were returned to the incubator for 2 h. 25 μL assay buffer (Hank's balanced salt solution+20 mM HEPES pH 7.4) containing FLIPR Calcium 6 dye (Molecular Devices, Sunnyvale, Calif.; # R8191) and probenecid (2.5 mM) was added to each well and incubated at 37° C. and 5% CO2 for 2 h. Compounds in DMSO were added to the plates using an HP D300e digital dispenser, and all wells were normalized to contain 0.25 μL (0.5%) DMSO. Plates were incubated for 1 hour at 37° C. and 5% CO2. CCL22 (Peprotech; Rockyhill, N.J.) was diluted in assay buffer containing 0.1% BSA to 7.5 nM (corresponding to 5×EC80 of 1.5 nM).
Assay plates and working solution of CCL22 were transferred to the FlexStation plate reader (Molecular Devices) at 37° C. for 5 min of equilibration. Fluorescence recordings at 485 excitation/525 emission were performed at 2.5 second intervals. At t=16 seconds, 12.5 μL of CCL22 solution was added to each well and reads continued for 30 seconds at 2.5 second intervals. The minimum fluorescence (Fmin) was calculated by averaging the reads prior to ligand addition and the change in fluorescence (ΔF) was calculated by subtracting the Fmin from the average of the reads following ligand addition. The response ΔF/Fmin was plotted as a function of the compound concentration and the IC50 values were determined by non-linear regression analysis using a 4-parameter fit in either PRISM software (GraphPad; La Jolla, Calif.) or Dotmatics Browser.
A general note: A change in cytosolic calcium serves as a functional read-out for many receptors and channels.
For “1-((R)-1-(2,4-Dichlorophenyl)ethyl)-6-(3-((S)-1-(2-hydroxyethyl)piperidin-3-yl)azetidin-1-yl)-1H-pyrazolo[3,4-b]pyrazine-3-carbonitrile and 1-((S)-1-(2,4-dichlorophenyl)ethyl)-6-(3-((S)-1-(2-hydroxyethyl)piperidin-3-yl)azetidin-1-yl)-1H-pyrazolo[3,4-b]pyrazine-3-carbonitrile [Example 34]”, the IC50 was less than 100 nM.

Turning to “1-((R)-1-(2,4-Dichlorophenyl)ethyl)-6-(3-((S)-1-(2-hydroxyethyl)piperidin-3-yl)azetidin-1-yl)-1H-pyrazolo[3,4-b]pyrazine-3-carboxamide and 1-((S)-1-(2,4-dichlorophenyl)ethyl)-6-(3-((S)-1-(2-hydroxyethyl)piperidin-3-yl)azetidin-1-yl)-1H-pyrazolo[3,4-b]pyrazine-3-carboxamide [Example 41]”, the IC50 is less than 100 nM.

“1-((R)-1-(2,4-dichlorophenyl)ethyl)-6-(3-((R)-1-((R)-4-hydroxybutan-2-yl)piperidin-3-yl)azetidin-1-yl)-1H-pyrazolo[3,4-b]pyrazine-3-carbonitrile and 1-((R)-1-(2,4-dichlorophenyl)ethyl)-6-(3-((R)-1-((S)-4-hydroxybutan-2-yl)piperidin-3-yl)azetidin-1-yl)-1H-pyrazolo[3,4-b]pyrazine-3-carbonitrile [Example 82]”: the IC50 is less than 100 nM.

Consider “1-((R)-1-(2,4-dichlorophenyl)ethyl)-6-(3-((S)-1-((R)-4-hydroxybutan-2-yl)piperidin-3-yl)azetidin-1-yl)-1H-pyrazolo[3,4-b]pyrazine-3-carbonitrile and 1-((R)-1-(2,4-dichlorophenyl)ethyl)-6-(3-((S)-1-((S)-4-hydroxybutan-2-yl)piperidin-3-yl)azetidin-1-yl)-1H-pyrazolo[3,4-b]pyrazine-3-carbonitrile [Example 83]”, for which the IC50 fell in the range of 100 to 500 nM.

In the case of “4-((S)-3-(1-(1-((R)-1-(2,4-Dichlorophenyl)ethyl)-3-methyl-1H-pyrazolo[3,4-b]pyrazin-6-yl)azetidin-3-yl)piperidin-1-yl)butanoic acid and 4-((R)-3-(1-(1-((R)-1-(2,4-dichlorophenyl)ethyl)-3-methyl-1H-pyrazolo[3,4-b]pyrazin-6-yl)azetidin-3-yl)piperidin-1-yl)butanoic acid [Example 17]”, the IC50 is less than 100 nM.

As to “4-((S)-3-(1-(1-((R)-1-(2,4-Dichlorophenyl)ethyl)-3-methyl-1H-pyrazolo[3,4-d]pyrimidin-6-yl)azetidin-3-yl)piperidin-1-yl)butanoic acid and 4-((R)-3-(1-(1-((R)-1-(2,4-dichlorophenyl)ethyl)-3-methyl-1H-pyrazolo[3,4-d]pyrimidin-6-yl)azetidin-3-yl)piperidin-1-yl)butanoic acid [Example 20]”, the IC50 lay within 100 to 500 nM.

In the case of `CCOC(=O)CN1CCCC(C2CN(c3cnc4c(C)nn([C@H](C)c5ccc(Cl)cc5Cl)c4n3)C2)C1` (mixture of isomers) [Example 1, Ethyl 2-((R)-3-(1-(1-((R)-1-(2,4-dichlorophenyl)ethyl)-3-methyl-1H-pyrazolo[3,4-b]pyrazin-6-yl)azetidin-3-yl)piperidin-1-yl)acetate 2,2,2-trifluoroacetate and 2,2,2-trifluoroacetate ethyl 2-((S)-3-(1-(1-((R)-1-(2,4-dichlorophenyl)ethyl)-3-methyl-1H-pyrazolo[3,4-b]pyrazin-6-yl)azetidin-3-yl)piperidin-1-yl)acetate], the IC50 was greater than 500 nM.

As for `Cc1nn([C@H](C)c2ccc(Cl)cc2Cl)c2nc(N3CC(C4CCCN(CCS(N)(=O)=O)C4)C3)cnc12` (mixture of isomers) [Example 4, 2-((R)-3-(1-(1-((R)-1-(2,4-dichlorophenyl)ethyl)-3-methyl-1H-pyrazolo[3,4-b]pyrazin-6-yl)azetidin-3-yl)piperidin-1-yl)ethane-1-sulfonamide and 2-((S)-3-(1-(1-((R)-1-(2,4-dichlorophenyl)ethyl)-3-methyl-1H-pyrazolo[3,4-b]pyrazin-6-yl)azetidin-3-yl)piperidin-1-yl)ethane-1-sulfonamide], the IC50 fell in the range of 100 to 500 nM.

Regarding `Cc1nn([C@H](C)c2ccc(Cl)cc2Cl)c2nc(N3CC(C4CCCN(CCC(=O)O)C4)C3)cnc12` (mixture of isomers) [Example 7, 3-((S)-3-(1-(1-((R)-1-(2,4-Dichlorophenyl)ethyl)-3-methyl-1H-pyrazolo[3,4-b]pyrazin-6-yl)azetidin-3-yl)piperidin-1-yl)propanoic acid and 3-((R)-3-(1-(1-((R)-1-(2,4-dichlorophenyl)ethyl)-3-methyl-1H-pyrazolo[3,4-b]pyrazin-6-yl)azetidin-3-yl)piperidin-1-yl)propanoic acid], the IC50 is 100 to 500 nM.

Take `Cc1nn([C@H](C)c2ccc(Cl)cc2Cl)c2nc(N3CC(C4CCCN(C5CC(C(=O)O)C5)C4)C3)cnc12` (mixture of isomers) [Example 16]: the IC50 was greater than 500 nM.

Regarding `C[C@H](c1ccc(Cl)cc1Cl)n1nc(C#N)c2ncc(N3CC(C4CCCN(CCS(C)(=O)=O)C4)C3)nc21` (mixture of isomers) [Example 23, 1-((R)-1-(2,4-Dichlorophenyl)ethyl)-6-(3-((S)-1-(2-(methylsulfonyl)ethyl)piperidin-3-yl)azetidin-1-yl)-1H-pyrazolo[3,4-b]pyrazine-3-carbonitrile and 1-((R)-1-(2,4-dichlorophenyl)ethyl)-6-(3-((R)-1-(2-(methylsulfonyl)ethyl)piperidin-3-yl)azetidin-1-yl)-1H-pyrazolo[3,4-b]pyrazine-3-carbonitrile], the IC50 was less than 100 nM.

With `C[C@H](c1ccc(Cl)cc1Cl)n1nc(C#N)c2ncc(N3CC(C4CCCN(CCC(N)=O)C4)C3)nc21` (mixture of isomers) [Example 24, 3-((S)-3-(1-(3-Cyano-1-((R)-1-(2,4-dichlorophenyl)ethyl)-1H-pyrazolo[3,4-b]pyrazin-6-yl)azetidin-3-yl)piperidin-1-yl)propanamide and 3-((R)-3-(1-(3-cyano-1-((R)-1-(2,4-dichlorophenyl)ethyl)-1H-pyrazolo[3,4-b]pyrazin-6-yl)azetidin-3-yl)piperidin-1-yl)propanamide], the IC50 was less than 100 nM.

Turning to `CC(O)CN1CCCC(C2CN(c3cnc4c(C#N)nn([C@H](C)c5ccc(Cl)cc5Cl)c4n3)C2)C1` (mixture of isomers) [Example 27], the IC50 is less than 100 nM.

In the case of `Cc1nn([C@H](C)c2ccc(Cl)cc2Cl)c2nc(N3CC(C4CCCN(CCO)C4)C3)ncc12` (mixture of isomers) [Example 37, 2-((S)-3-(1-(1-((R)-1-(2,4-Dichlorophenyl)ethyl)-3-methyl-1H-pyrazolo[3,4-d]pyrimidin-6-yl)azetidin-3-yl)piperidin-1-yl)ethan-1-ol and 2-((R)-3-(1-(1-((R)-1-(2,4-dichlorophenyl)ethyl)-3-methyl-1H-pyrazolo[3,4-d]pyrimidin-6-yl)azetidin-3-yl)piperidin-1-yl)ethan-1-ol], the IC50 is less than 100 nM.

What is called IC50 is the concentration at which inhibition is half-maximal.
